The record followed here is US11407736B2 (priority 2019, dated 2022).

The test system of one assay is L929 cells. Kind of assay: L929 cell necroptosis assay (TNFa + zVAD, CellTiter-Glo). It is filed as cell-based, murine. The settings on record: Mus musculus. An outline of the steps: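 Murine L929 cells, plated 18 h beforehand at 10K cells/well in RPMI 1640 with 10% FBS, were switched to medium containing 40 uM zVAD-fmk and given compound from 4-fold serial dilutions. Viability after 18 h of TNFa stimulation at 37° C was read by CellTiter-Glo luminescence.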

A further assay deals with U937 cells. Kind of assay: U937 cell necroptosis assay (TNFa + zVAD, CellTiter-Glo). In kind it is cell-based, human. The settings on record: Homo sapiens. In a few lines:
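Human U937 and murine L929 cells in RPMI 1640/10% FBS were pre-incubated 1 h at 37 °C with serially diluted compound plus zVAD-fmk (U937 plated with 60 uM, L929 medium with 40 uM), then stimulated with 2 ng/mL TNFa (final). Viability read by CellTiter-Glo luminescence after 18 h.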

The next assay deals with RIPK1 (Homo sapiens (Human), UniProt Q13546). Kind of assay: RIPK1 ADP-Glo biochemical kinase assay. On the procedure: The final reaction volume was 5.0ul.
Adding 5 μl of ADP-Glo™ terminated the reaction.

[1] abbreviates: L929, L929 cells, TNFa + zVAD, read-out: L929-CTG-recovery, L929, TNFa + zVAD (IC50).
Setting [2] is: U-937, U937 cells, TNFa + zVAD, read-out: U937 Zvad TNF CTG Recovery, U937, TNFa + zVAD (IC50).
Setting [3] is: read-out: RIPK1 ADP-Glo Kinase (IC50).
Setting [4] is: L929, read-out: L929-CTG-recovery, L929, TNFa + zVAD (IC50), L929 cells, TNFa + zVAD.
[5] abbreviates: U-937, read-out: U937 Zvad TNF CTG Recovery, U937, TNFa + zVAD (IC50), U937 cells, TNFa + zVAD.
The mark [6] stands for this setting: L929 cells, TNFa + zVAD, read-out: L929-CTG-recovery, L929, TNFa + zVAD (IC50).

The structures appear in SMILES notation. Structures can show the parent of a compound that is named as a salt. Where two headings read alike, the source gives them in different places.

Sequence of RIPK1 (Q13546 whole entry, species assumed): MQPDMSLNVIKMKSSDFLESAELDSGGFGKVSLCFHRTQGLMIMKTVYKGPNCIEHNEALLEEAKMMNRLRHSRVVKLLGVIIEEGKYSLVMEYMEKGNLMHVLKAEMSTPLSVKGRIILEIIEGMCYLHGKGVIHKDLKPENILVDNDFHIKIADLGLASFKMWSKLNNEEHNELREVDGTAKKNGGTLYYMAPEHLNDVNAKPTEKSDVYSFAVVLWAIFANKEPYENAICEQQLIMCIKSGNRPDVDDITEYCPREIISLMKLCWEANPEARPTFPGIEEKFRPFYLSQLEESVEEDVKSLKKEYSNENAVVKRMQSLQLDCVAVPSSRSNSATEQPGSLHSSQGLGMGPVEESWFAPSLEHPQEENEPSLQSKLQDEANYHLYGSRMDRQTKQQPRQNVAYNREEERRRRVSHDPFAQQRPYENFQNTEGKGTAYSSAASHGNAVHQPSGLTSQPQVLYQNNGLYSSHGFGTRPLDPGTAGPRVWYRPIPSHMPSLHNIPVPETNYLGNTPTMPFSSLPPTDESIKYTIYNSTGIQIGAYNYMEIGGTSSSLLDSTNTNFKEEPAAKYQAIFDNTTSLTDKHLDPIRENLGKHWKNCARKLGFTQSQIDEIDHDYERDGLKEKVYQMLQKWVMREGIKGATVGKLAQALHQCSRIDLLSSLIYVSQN

For the compound `CN1C(=O)[C@@H](NC(=O)c2cc(Oc3ccc(F)cc3)ccn2)COc2ccc(C#CC(C)(C)C)cc21` [Compound I-101, (S)—N-(7-(3,3-dimethylbut-1-yn-1-yl)-5-methyl-4-oxo-2,3,4,5-tetrahydrobenzo[b][1,4]oxazepin-3-yl)-4-(4-fluorophenoxy)picolinamide], the IC50 in the assay on L929 cells (setting [1]) is 668 nM; in the assay with U937 cells (setting [2]) it was 36.3 nM; on RIPK1 (setting [3]), 133 nM.
With `CN1C(=O)[C@@H](NC(=O)c2n[nH]c(Cc3ccccc3)n2)COc2ccc(C#CCCCO)cc21` [Compound I-35, (S)-5-benzyl-N-(7-(5-hydroxypent-1-yn-1-yl)-5-methyl-4-oxo-2,3,4,5-tetrahydrobenzo[b][1,4]oxazepin-3-yl)-1H-1,2,4-triazole-3-carboxamide], the IC50 in the assay with L929 cells (setting [1]) turned out to be 17.8 nM; with U937 cells (setting [2]), 3.1 nM; on RIPK1 (setting [3]) it was 22.3 nM.
The corresponding values for `CN1C(=O)[C@@H](NC(=O)n2cc(Cc3ccccc3)cn2)COc2ccc(C#CC(C)(C)C)cc21` [Compound I-212, (S)-4-Benzyl-N-(7-(3,3-dimethylbut-1-yn-1-yl)-5-methyl-4-oxo-2,3,4,5-tetrahydrobenzo[b][1,4]oxazepin-3-yl)-1H-pyrazole-1-carboxamide] are 267 nM, 4.3 nM and 154 nM.
With `CN1C(=O)[C@@H](NC(=O)c2ncn(Cc3ccccc3)n2)COc2ccc(C#CC3(O)CCOCC3)cc21` [Compound I-54, (S)-1-benzyl-N-(7-((4-hydroxytetrahydro-2H-pyran-4-yl)ethynyl)-5-methyl-4-oxo-2,3,4,5-tetrahydrobenzo[b][1,4]oxazepin-3-yl)-1H-1,2,4-triazole-3-carboxamide], the results for the IC50 in the assay on L929 cells (setting [1]), in the assay on U937 cells (setting [2]) and at RIPK1 (setting [3]) were 0.3 nM, 0.9 nM and 26.9 nM, respectively.
Turning to `CN1C(=O)[C@@H](NC(=O)c2ncn(Cc3ccccc3)n2)COc2ccc(CCC(N)=O)cc21` [Compound I-32, (S)—N-(7-(3-amino-3-oxopropyl)-5-methyl-4-oxo-2,3,4,5-tetrahydrobenzo[b][1,4]oxazepin-3-yl)-1-benzyl-1H-1,2,4-triazole-3-carboxamide], the IC50 in the assay with L929 cells (setting [1]) stood at 17700 nM; in the assay with U937 cells (setting [2]) it was 2.7 nM; at RIPK1 (setting [3]) it was 21.9 nM.
As to `CN1C(=O)[C@@H](NC(=O)n2cc(Cc3ccc(F)cc3F)cn2)COc2ccc(C#CC(C)(C)CN)cc21` [Compound I-241, (S)—N-(7-(4-Amino-3,3-dimethylbut-1-yn-1-yl)-5-methyl-4-oxo-2,3,4,5-tetrahydrobenzo[b][1,4]oxazepin-3-yl)-4-(2,4-difluorobenzyl)-1H-pyrazole-1-carboxamide hydrochloride], the IC50 with L929 cells (setting [1]) came out at 2100 nM; in the assay on U937 cells (setting [2]), 62.6 nM; on RIPK1, 50.1 nM.
For `C=C(C#Cc1ccc2c(c1)N(C)C(=O)[C@@H](NC(=O)c1cc(Oc3ccc(F)cc3)ccn1)CO2)CCNC` [Compound I-138, (S)-4-(4-fluorophenoxy)-N-(5-methyl-7-(5-(methylamino)-3-methylenepent-1-yn-1-yl)-4-oxo-2,3,4,5-tetrahydrobenzo[b][1,4]oxazepin-3-yl)picolinamide], the IC50 in the assay on L929 cells (setting [1]) was determined as 3150 nM; with U937 cells (setting [2]), 122 nM; at RIPK1 (setting [3]), 76.9 nM.
On to `CN1C(=O)[C@@H](NC(=O)c2cc(Oc3cccc(F)c3)ccn2)COc2ccc(C#CC(C)(C)C)cc21` [Compound I-106, (S)—N-(7-(3,3-dimethylbut-1-yn-1-yl)-5-methyl-4-oxo-2,3,4,5-tetrahydrobenzo[b][1,4]oxazepin-3-yl)-4-(3-fluorophenoxy)picolinamide], for which the IC50 with L929 cells (setting [1]) came to 481 nM; in the assay on U937 cells (setting [2]) it was 5.5 nM; on RIPK1 (setting [3]), 582 nM.
Taken in the same sequence, the figures for `CN1C(=O)[C@@H](NC(=O)c2nnc(Cc3ccccc3)o2)COc2ccc(C#CC(C)(C)O)cc21` [Compound I-71, (S)-5-benzyl-N-(7-(3-hydroxy-3-methylbut-1-yn-1-yl)-5-methyl-4-oxo-2,3,4,5-tetrahydrobenzo[b][1,4]oxazepin-3-yl)-1,3,4-oxadiazole-2-carboxamide] were 0.2 nM, 0.9 nM and 21.7 nM.
As for `CC(C)N1CC(O)(C#Cc2ccc3c(c2)N(C)C(=O)[C@@H](NC(=O)c2cc(Oc4ccccc4)ccn2)CO3)C1` [Compound I-195, (S)—N-(7-((3-hydroxy-1-isopropylazetidin-3-yl)ethynyl)-5-methyl-4-oxo-2,3,4,5-tetrahydrobenzo[b][1,4]oxazepin-3-yl)-4-phenoxypicolinamide], the figures for the IC50 in the assay on L929 cells (setting [4]), in the assay on U937 cells (setting [5]) and at RIPK1 (setting [3]) were 268 nM, 1.1 nM and 15.3 nM, respectively.
The corresponding values for `CN1C(=O)[C@@H](NC(=O)c2nnc(Cc3ccccc3)o2)COc2ccc(N3CC4(CCOCC4)C3)cc21` [Compound I-236, (S)-5-benzyl-N-(5-methyl-4-oxo-7-(7-oxa-2-azaspiro[3.5]nonan-2-yl)-2,3,4,5-tetrahydrobenzo[b][1,4]oxazepin-3-yl)-1,3,4-oxadiazole-2-carboxamide] are 258 nM, 6.6 nM and 55.9 nM.
Take `CN1C(=O)[C@@H](NC(=O)c2cc(Oc3cccc(F)c3)ccn2)COc2ccc(C#CC(C)(C)O)cc21` [Compound I-107, (S)-4-(3-fluorophenoxy)-N-(7-(3-hydroxy-3-methylbut-1-yn-1-yl)-5-methyl-4-oxo-2,3,4,5-tetrahydrobenzo[b][1,4]oxazepin-3-yl)picolinamide]: the figures for the IC50 with L929 cells (setting [1]), with U937 cells (setting [2]) and at RIPK1 (setting [3]) were 161 nM, 1.3 nM and 23.1 nM, respectively.
Turning to `CN1CCC2(CC1)CCN(c1ccc3c(c1)N(C)C(=O)[C@@H](NC(=O)c1cc(Oc4ccccc4)ccn1)CO3)CC2` [II-27, (S)—N-(5-Methyl-7-(9-methyl-3,9-diazaspiro[5.5]undecan-3-yl)-4-oxo-2,3,4,5-tetrahydrobenzo[b][1,4]oxazepin-3-yl)-4-phenoxypicolinamide], the IC50 in the assay with L929 cells (setting [6]) amounted to 10400 nM; with U937 cells (setting [2]), 63.3 nM; on RIPK1 (setting [3]) it was 27.9 nM.
`CC(=O)N1CC(F)(C#Cc2ccc3c(c2)N(C)C(=O)[C@@H](NC(=O)c2cc(Oc4ccccc4)ccn2)CO3)C1` [Compound I-191, (S)—N-(7-((1-acetyl-3-fluoroazetidin-3-yl)ethynyl)-5-methyl-4-oxo-2,3,4,5-tetrahydrobenzo[b][1,4]oxazepin-3-yl)-4-phenoxypicolinamide]: the IC50 in the assay on L929 cells (setting [1]) was found to be 21.5 nM; with U937 cells (setting [2]) it was 0.3 nM; at RIPK1 (setting [3]), 19.7 nM.
Take `CN1C(=O)[C@@H](NC(=O)c2n[nH]c(Cc3cccc(F)c3)n2)COc2ccc(C#CC(C)(C)O)cc21` [Compound I-78, (S)-5-(3-fluorobenzyl)-N-(7-(3-hydroxy-3-methylbut-1-yn-1-yl)-5-methyl-4-oxo-2,3,4,5-tetrahydrobenzo[b][1,4]oxazepin-3-yl)-1H-1,2,4-triazole-3-carboxamide]: the results for the 50% inhibitory concentration (IC50) in the assay on L929 cells (setting [1]), in the assay on U937 cells (setting [2]) and on RIPK1 (setting [3]) were 0.9 nM, 2.5 nM and 33.4 nM, respectively.
For the compound `CN1C(=O)[C@@H](NC(=O)c2ncn(Cc3ccccc3)n2)COc2ccc(C#CC3(O)CCC3)cc21` [Compound I-50, (S)-1-benzyl-N-(7-((1-hydroxycyclobutyl)ethynyl)-5-methyl-4-oxo-2,3,4,5-tetrahydrobenzo[b][1,4]oxazepin-3-yl)-1H-1,2,4-triazole-3-carboxamide], the values for the IC50 with L929 cells (setting [6]), in the assay with U937 cells (setting [2]) and on RIPK1 (setting [3]) were 0.3 nM, 1.1 nM and 23.4 nM, respectively.
In the case of `CN1C(=O)[C@@H](NC(=O)c2cc(Oc3ccc(C#N)cc3)ccn2)COc2ccc(C#CC3(O)COC3)cc21` [II-19, (S)-4-(4-cyanophenoxy)-N-(7-((3-hydroxyoxetan-3-yl)ethynyl)-5-methyl-4-oxo-2,3,4,5-tetrahydrobenzo[b][1,4]oxazepin-3-yl)picolinamide], the IC50 in the assay with L929 cells (setting [4]) was found to be 2890 nM; with U937 cells (setting [5]), 55.5 nM; at RIPK1 (setting [3]) it was 34.9 nM.
In the case of `CN1C(=O)[C@@H](NC(=O)c2n[nH]c(Cc3ccccc3)n2)COc2ccc(C#CCN3CCOCC3)cc21` [Compound I-96, (S)-5-benzyl-N-(5-methyl-7-(3-morpholinoprop-1-yn-1-yl)-4-oxo-2,3,4,5-tetrahydrobenzo[b][1,4]oxazepin-3-yl)-1H-1,2,4-triazole-3-carboxamide], the IC50 was determined as 0.8 nM in the assay with L929 cells (setting [1]), 3.1 nM with U937 cells (setting [2]) and 31.7 nM on RIPK1 (setting [3]).
Taken in the same sequence, the figures for `COC1(C#Cc2ccc3c(c2)N(C)C(=O)[C@@H](NC(=O)c2cc(Oc4ccccc4)ccn2)CO3)CNC1` [Compound I-154, (S)—N-(7-((3-methoxyazetidin-3-yl)ethynyl)-5-methyl-4-oxo-2,3,4,5-tetrahydrobenzo[b][1,4]oxazepin-3-yl)-4-phenoxypicolinamide] were 656 nM, 3.5 nM and 26.7 nM.
